# Target: recombinant DYRK1A kinase (Homo sapiens (Human), UniProt Q13627)
# Assay: DYRK1A kinase assay (Ser/Thr 18 peptide Z-lyte FRET assay)
# Assay type: biochemical
# Conditions: DYRK1A 0.25 μg/mL, ATP 15 μM, Ser/Thr peptide 18 4 μM; one hour at room temperature; 11-point dose-response, duplicate
# In short: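 Z-lyte FRET assay on Ser/Thr 18 peptide, kinase activity read as coumarin/fluorescein emission ratio; compounds incubated 1 h at room temperature, then development reagent 1 h, in duplicate. Phosphorylated and unphosphorylated peptide served as controls; IC50 by non-linear regression of dose-response curves.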
row,SMILES,IC50 [nM]
1,"CN1CC[C@@H](Nc2nc(N)c3c(-c4ccc5ncn(CC(F)(F)F)c5n4)ccn3n2)C(F)(F)C1 [Compound 994, (R)—N^2-(3,3-Difluoro-1-methylpiperidin-4-yl)-5-(3-(2,2,2-trifluoroethyl)-3H-imidazo[4,5-b]pyridin-5-yl)pyrrolo[2,1-f][1,2,4]triazine-2,4-diamine]",1.2
2,"CC(=O)N1CC[C@H](Nc2nc(N)c3c(-c4ccc5nc(C)n(CCF)c5n4)ccn3n2)[C@H](F)C1 [Compound 996, 1-((3R,4S)-4-((4-Amino-5-(3-(2-fluoroethyl)-2-methyl-3H-imidazo[4,5-b]pyridin-5-yl)pyrrolo[2,1-f][1,2,4]triazin-2-yl)amino)-3-fluoropiperidin-1-yl)ethan-1-one]",1.8
3,"Cc1nc2ccc(-c3ccn4nc(N[C@H]5CCN(C6COC6)C[C@H]5F)nc(N)c34)nc2n1CCF [Compound 997, N^2-((3R,4S)-3-Fluoro-1-(oxetan-3-yl)piperidin-4-yl)-5-(3-(2-fluoroethyl)-2-methyl-3H-imidazo[4,5-b]pyridn-5-yl)pyrrolo[2,1-f][1,2,4]triazine-2,4-diamine]",1.7
4,"CC(=O)N1CC[C@@H](Nc2nc(N)c3c(-c4ccc5nc(C)n(CCF)c5n4)ccn3n2)C(F)(F)C1 [Compound 998, (R)-1-(4-((4-Amino-5-(3-(2-fluoroethyl)-2-methyl-3H-imidazo[4,5-b]pyridin-5-yl)pyrrolo[2,1-f][1,2,4]triazin-2-yl)amino)-3,3-difluoropiperidin-1-yl)ethan-1-one]",9.2
5,"Cc1nc2ccc(-c3ccn4nc(N[C@@H]5CCN(C6COC6)CC5(F)F)nc(N)c34)nc2n1CCF [Compound 999, (R)—N^2-(3,3-Difluoro-1-(oxetan-3-yl)piperidin-4-yl)-5-(3-(2-fluoroethyl)-2-methyl-3H-imidazo[4,5-b]pyridin-5-yl)pyrrolo[2,1-f][1,2,4]triazine-2,4-diamine]",1.8
6,"Nc1nc(N[C@H]2CC[C@@H](OC(F)F)CC2)nn2ccc(-c3ccc4nnn(CC(F)F)c4n3)c12 [Compound 1000, 5-(3-(2,2-Difluoroethyl)-3H-[1,2,3]triazolo[4,5-b]pyridin-5-yl)-N^2-(cis-4-(difluoromethoxy)cyclohexyl)pyrrolo[2,1-f][1,2,4]triazine-2,4-diamine]",5.1
7,"CNc1nc(NC2CCC(F)(F)CC2)nn2ccc(-c3ccc4ncn(CCF)c4n3)c12 [Compound 1001, N^2-(4,4-Difluorocyclohexyl)-5-(3-(2-fluoroethyl)-3H-imidazo[4,5-b]pyridin-5-yl)-N^4-methylpyrrolo[2,1-f][1,2,4]triazine-2,4-diamine]",2.2
8,"CNc1nc(N[C@H]2CCN(C3COC3)C[C@H]2F)nn2ccc(-c3ccc4ncn(CCF)c4n3)c12 [Compound 1003, N^2-((3R,4S)-3-Fluoro-1-(oxetan-3-yl)piperidin-4-yl)-5-(3-(2-fluoroethyl)-3H-imidazo[4,5-b]pyridin-5-yl)-N4-methylpyrrolo[2,1-f][1,2,4]triazine-2,4-diamine]",1.1
9,"CNc1nc(N[C@@H]2CCN(C)CC2(F)F)nn2ccc(-c3ccc4ncn(CCF)c4n3)c12 [Compound 1004, (R)—N^2-(3,3-Difluoro-1-methylpiperidin-4-yl)-5-(3-(2-fluoroethyl)-3H-imidazo[4,5-b]pyridin-5-yl)-N^4-methylpyrrolo[2,1-f][1,2,4]triazine-2,4-diamine]",1.1
10,"CNc1nc(NC2CCC(F)(F)CC2)nn2ccc(-c3ccc4ncn(CC(F)F)c4n3)c12 [Compound 1007, N^2-(4,4-Difluorocyclohexyl)-5-(3-(2,2-difluoroethyl)-3H-imidazo[4,5-b]pyridin-5-yl)-N^4-methylpyrrolo[2,1-f][1,2,4]triazine-2,4-diamine]",4.1
11,"CNc1nc(N[C@H]2CCN(C3COC3)C[C@H]2F)nn2ccc(-c3ccc4ncn(CC(F)F)c4n3)c12 [Compound 1009, 5-(3-(2,2-Difluoroethyl)-3H-imidazo[4,5-b]pyridin-5-yl)-N^2-((3R,4S)-3-fluoro-1-(oxetan-3-yl)piperidin-4-yl)-N4-methylpyrrolo[2,1-f][1,2,4]triazine-2,4-diamine]",2

# Further lines, results first:
row,IC50 [nM],SMILES
1,0.4,"CN1CC[C@@H](Nc2nc(N)c3c(-c4ccc5ncn(CC(F)F)c5n4)ccn3n2)C(F)(F)C1 [Compound 991, (R)—N^2-(3,3-Difluoro-1-methylpiperidin-4-yl)-5-(3-(2,2-difluoroethyl)-3H-imidazo[4,5-b]pyridin-5-yl)pyrrolo[2,1-f][1,2,4]triazine-2,4-diamine]"
2,0.7,"CC(=O)N1CC[C@@H](Nc2nc(N)c3c(-c4ccc5ncn(CC(F)F)c5n4)ccn3n2)C(F)(F)C1 [Compound 992, (R)-1-(4-((4-Amino-5-(3-(2,2-difluoroethyl)-3H-imidazo[4,5-b]pyridin-5-yl)pyrrolo[2,1-f][1,2,4]triazin-2-yl)amino)-3,3-difluoropiperidin-1-yl)ethan-1-one]"
3,0.6,"Nc1nc(N[C@@H]2CCN(C3COC3)CC2(F)F)nn2ccc(-c3ccc4ncn(CC(F)F)c4n3)c12 [Compound 993, (R)—N^2-(3,3-Difluoro-1-(oxetan-3-yl)piperidin-4-yl)-5-(3-(2,2-difluoroethyl)-3H-imidazo[4,5-b]pyridin-5-yl)pyrrolo[2,1-f][1,2,4]triazine-2,4-diamine]"
4,0.8,"Cc1nc2ccc(-c3ccn4nc(N[C@H]5CC[C@](C)(O)CC5)nc(N)c34)nc2n1CCF [Compound 995, (1r,4r)-4-((4-Amino-5-(3-(2-fluoroethyl)-2-methyl-3H-imidazo[4,5-b]pyridin-5-yl)pyrrolo[2,1-f][1,2,4]triazin-2-yl)amino)-1-methylcyclohexan-1-ol]"
5,1.1,"CNc1nc(N[C@H]2CCN(C(C)=O)C[C@H]2F)nn2ccc(-c3ccc4ncn(CCF)c4n3)c12 [Compound 1002, 1-((3R,4S)-3-Fluoro-4-((5-(3-(2-fluoroethyl)-3H-imidazo[4,5-b]pyridin-5-yl)-4-(methylamino)pyrrolo[2,1-f][1,2,4]triazin-2-yl)amino)piperidin-1-yl)ethan-1-one]"
6,0.9,"CNc1nc(N[C@@H]2CCN(C3COC3)CC2(F)F)nn2ccc(-c3ccc4ncn(CCF)c4n3)c12 [Compound 1005, (R)—N^2-(3,3-Difluoro-1-(oxetan-3-yl)piperidin-4-yl)-5-(3-(2-fluoroethyl)-3H-imidazo[4,5-b]pyridin-5-yl)-N^4-methylpyrrolo[2,1-f][1,2,4]triazine-2,4-diamine]"
7,0.4,"CNc1nc(N[C@H]2CC[C@@](C)(O)CC2)nn2ccc(-c3ccc4ncn(CC(F)F)c4n3)c12 [Compound 1008, (1r,4r)-4-((5-(3-(2,2-Difluoroethyl)-3H-imidazo[4,5-b]pyridin-5-yl)-4-(methylamino)pyrrolo[2,1-f][1,2,4]triazin-2-yl)amino)-1-methylcyclohexan-1-ol]"
8,0.5,"CNc1nc(N[C@@H]2CCN(C(C)=O)CC2(F)F)nn2ccc(-c3ccc4ncn(CC(F)F)c4n3)c12 [Compound 1010, (R)-1-(4-((5-(3-(2,2-Difluoroethyl)-3H-imidazo[4,5-b]pyridin-5-yl)-4-(methylamino)pyrrolo[2,1-f][1,2,4]triazin-2-yl)amino)-3,3-difluoropiperidin-1-yl)ethan-1-one]"
